ChEMBL document CHEMBL5291721, “A preclinical secondary pharmacology resource illuminates target-adverse drug reaction associations of marketed drugs” (Nat Commun, 2023)

What was measured:
Histamine H2 receptor = Histamine H2 receptor (Homo sapiens, UniProt P25021); format: functional, cell-based
Cannabinoid receptor 1 = Cannabinoid receptor 1 (Homo sapiens, UniProt P21554)
Vasopressin V2 receptor = Vasopressin V2 receptor (Homo sapiens, UniProt P30518)
[1] = biological target: Voltage-dependent L-type calcium channel subunit alpha-1C (Rattus norvegicus, UniProt P22002); format: functional
Vasopressin V1a receptor = Vasopressin V1a receptor (Homo sapiens, UniProt P37288)
[2] = biological target: T1, Muscarinic acetylcholine receptor M1 (Homo sapiens, UniProt P11229); format: functional
T1 sequence (P11229 whole entry): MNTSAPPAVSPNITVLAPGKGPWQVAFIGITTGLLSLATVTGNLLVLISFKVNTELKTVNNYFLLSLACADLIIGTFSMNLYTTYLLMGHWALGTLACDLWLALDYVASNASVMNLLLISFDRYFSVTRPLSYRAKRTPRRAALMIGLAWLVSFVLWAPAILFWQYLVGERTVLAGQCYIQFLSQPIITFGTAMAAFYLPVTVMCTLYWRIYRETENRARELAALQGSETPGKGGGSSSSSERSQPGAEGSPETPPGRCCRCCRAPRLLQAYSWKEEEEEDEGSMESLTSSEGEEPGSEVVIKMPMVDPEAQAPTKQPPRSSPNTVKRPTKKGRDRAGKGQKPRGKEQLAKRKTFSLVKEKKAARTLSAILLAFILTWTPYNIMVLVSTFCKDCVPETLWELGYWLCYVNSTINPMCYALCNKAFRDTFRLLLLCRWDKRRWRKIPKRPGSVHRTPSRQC

D(1A) dopamine receptor = D(1A) dopamine receptor (Homo sapiens, UniProt P21728)
[3] = biological target: T2, Alpha-1A adrenergic receptor (Homo sapiens, UniProt P35348); format: functional, cell-based
T2 sequence (P35348 whole entry): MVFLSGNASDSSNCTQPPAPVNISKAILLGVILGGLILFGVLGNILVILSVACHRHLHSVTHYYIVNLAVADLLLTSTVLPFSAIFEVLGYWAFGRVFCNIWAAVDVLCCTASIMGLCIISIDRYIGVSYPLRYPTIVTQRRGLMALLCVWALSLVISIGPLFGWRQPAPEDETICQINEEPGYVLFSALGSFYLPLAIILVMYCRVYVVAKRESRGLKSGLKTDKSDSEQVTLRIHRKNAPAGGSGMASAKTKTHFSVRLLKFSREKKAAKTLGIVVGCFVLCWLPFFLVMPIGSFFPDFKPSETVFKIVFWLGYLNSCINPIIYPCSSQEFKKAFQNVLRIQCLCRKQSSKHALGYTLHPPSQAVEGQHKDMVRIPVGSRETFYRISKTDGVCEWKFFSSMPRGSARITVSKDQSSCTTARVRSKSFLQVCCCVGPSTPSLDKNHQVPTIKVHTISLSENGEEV

[4] = biological target: T3, Alpha-2A adrenergic receptor (Homo sapiens, UniProt P08913)
T3 sequence (P08913 whole entry): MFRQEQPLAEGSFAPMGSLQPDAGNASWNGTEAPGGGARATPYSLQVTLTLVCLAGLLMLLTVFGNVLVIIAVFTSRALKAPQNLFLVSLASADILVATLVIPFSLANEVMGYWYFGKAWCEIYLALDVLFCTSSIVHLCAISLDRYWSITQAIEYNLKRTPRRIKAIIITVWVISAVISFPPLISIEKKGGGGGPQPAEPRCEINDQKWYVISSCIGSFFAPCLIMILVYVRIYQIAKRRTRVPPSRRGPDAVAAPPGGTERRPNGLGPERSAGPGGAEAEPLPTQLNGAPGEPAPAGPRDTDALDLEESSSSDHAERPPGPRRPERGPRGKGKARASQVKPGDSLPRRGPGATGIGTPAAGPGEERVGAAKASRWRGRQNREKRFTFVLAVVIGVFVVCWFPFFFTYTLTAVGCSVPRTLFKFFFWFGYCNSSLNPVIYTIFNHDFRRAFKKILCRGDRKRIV

[5] = biological target: T4, Prostaglandin G/H synthase 1 (Homo sapiens, UniProt P23219); format: functional
[6] = biological target: T4, Prostaglandin G/H synthase 1; format: functional; remark: listed apart in the source
Note: assay procedure not described here.

Chain of D(1A) dopamine receptor (P21728 whole entry): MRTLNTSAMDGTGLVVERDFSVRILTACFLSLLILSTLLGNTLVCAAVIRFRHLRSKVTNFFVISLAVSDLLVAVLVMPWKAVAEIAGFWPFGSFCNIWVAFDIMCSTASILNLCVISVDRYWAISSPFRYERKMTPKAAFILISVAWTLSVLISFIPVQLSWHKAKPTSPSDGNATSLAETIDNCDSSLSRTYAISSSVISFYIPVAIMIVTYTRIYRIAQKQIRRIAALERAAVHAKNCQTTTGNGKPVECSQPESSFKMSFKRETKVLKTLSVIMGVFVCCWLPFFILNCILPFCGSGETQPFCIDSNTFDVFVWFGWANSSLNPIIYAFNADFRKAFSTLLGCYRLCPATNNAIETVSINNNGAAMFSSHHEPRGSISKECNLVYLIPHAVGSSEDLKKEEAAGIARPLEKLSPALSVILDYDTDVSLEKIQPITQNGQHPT
Chain of Vasopressin V2 receptor (P30518 whole entry): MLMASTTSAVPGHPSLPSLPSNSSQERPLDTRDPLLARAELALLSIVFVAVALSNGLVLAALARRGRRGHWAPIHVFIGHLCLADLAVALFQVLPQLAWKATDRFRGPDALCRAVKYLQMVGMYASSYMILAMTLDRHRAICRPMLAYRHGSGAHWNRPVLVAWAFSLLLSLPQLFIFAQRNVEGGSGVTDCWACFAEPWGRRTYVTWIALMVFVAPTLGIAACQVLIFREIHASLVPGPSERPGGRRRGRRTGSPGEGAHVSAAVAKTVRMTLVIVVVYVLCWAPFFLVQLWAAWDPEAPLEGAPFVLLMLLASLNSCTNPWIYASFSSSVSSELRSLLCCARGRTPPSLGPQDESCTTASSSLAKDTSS
Chain of Histamine H2 receptor (P25021 whole entry): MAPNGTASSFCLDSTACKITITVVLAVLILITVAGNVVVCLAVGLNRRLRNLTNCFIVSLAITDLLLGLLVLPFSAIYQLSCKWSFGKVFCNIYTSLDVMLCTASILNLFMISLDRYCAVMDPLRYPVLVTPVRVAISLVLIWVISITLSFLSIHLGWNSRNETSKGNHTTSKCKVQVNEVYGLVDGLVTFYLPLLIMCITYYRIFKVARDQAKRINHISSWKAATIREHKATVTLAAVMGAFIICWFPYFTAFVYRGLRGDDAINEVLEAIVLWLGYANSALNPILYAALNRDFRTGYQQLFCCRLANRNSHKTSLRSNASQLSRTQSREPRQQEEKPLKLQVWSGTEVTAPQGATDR
T4 sequence (P23219 whole entry): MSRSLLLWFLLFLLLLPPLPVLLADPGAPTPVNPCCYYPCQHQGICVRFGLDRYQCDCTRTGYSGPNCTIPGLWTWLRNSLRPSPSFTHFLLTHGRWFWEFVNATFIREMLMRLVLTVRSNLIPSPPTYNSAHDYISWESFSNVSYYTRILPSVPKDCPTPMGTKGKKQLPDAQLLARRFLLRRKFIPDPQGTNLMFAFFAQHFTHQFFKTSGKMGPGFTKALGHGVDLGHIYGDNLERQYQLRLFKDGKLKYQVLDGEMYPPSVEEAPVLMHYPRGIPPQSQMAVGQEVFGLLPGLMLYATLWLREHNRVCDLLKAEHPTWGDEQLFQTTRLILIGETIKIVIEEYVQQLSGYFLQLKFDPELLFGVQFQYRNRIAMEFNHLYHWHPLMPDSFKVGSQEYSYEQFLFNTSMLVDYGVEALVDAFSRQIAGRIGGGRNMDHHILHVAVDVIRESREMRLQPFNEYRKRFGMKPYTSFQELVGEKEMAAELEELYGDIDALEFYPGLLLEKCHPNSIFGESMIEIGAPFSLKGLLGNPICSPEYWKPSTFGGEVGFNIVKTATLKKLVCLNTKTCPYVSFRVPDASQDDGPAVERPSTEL
Chain of Vasopressin V1a receptor (P37288 whole entry): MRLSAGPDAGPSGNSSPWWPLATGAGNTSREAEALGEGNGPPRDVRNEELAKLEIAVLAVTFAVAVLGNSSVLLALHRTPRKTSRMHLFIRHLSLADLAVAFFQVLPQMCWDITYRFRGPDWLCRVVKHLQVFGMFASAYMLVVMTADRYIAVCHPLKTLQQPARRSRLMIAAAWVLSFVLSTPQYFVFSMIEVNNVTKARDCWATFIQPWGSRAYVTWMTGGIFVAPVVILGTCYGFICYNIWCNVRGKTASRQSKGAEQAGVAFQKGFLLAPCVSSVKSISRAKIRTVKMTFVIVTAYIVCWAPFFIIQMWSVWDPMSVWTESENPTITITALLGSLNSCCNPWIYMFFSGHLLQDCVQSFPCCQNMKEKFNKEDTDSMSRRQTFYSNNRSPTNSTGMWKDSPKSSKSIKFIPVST
Chain of Cannabinoid receptor 1 (P21554 whole entry): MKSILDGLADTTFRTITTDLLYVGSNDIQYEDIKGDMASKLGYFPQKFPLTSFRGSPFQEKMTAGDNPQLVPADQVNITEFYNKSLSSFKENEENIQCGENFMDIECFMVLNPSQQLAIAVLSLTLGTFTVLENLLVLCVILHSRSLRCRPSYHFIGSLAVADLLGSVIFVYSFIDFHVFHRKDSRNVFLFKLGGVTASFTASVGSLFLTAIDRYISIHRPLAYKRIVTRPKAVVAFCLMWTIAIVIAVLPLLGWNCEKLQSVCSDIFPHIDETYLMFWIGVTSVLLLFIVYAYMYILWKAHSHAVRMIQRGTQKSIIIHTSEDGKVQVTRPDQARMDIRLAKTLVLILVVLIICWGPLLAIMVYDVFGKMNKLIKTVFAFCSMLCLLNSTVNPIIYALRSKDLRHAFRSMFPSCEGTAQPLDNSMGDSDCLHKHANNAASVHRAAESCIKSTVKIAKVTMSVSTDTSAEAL
Chain of Voltage-dependent L-type calcium channel subunit alpha-1C (P22002 whole entry): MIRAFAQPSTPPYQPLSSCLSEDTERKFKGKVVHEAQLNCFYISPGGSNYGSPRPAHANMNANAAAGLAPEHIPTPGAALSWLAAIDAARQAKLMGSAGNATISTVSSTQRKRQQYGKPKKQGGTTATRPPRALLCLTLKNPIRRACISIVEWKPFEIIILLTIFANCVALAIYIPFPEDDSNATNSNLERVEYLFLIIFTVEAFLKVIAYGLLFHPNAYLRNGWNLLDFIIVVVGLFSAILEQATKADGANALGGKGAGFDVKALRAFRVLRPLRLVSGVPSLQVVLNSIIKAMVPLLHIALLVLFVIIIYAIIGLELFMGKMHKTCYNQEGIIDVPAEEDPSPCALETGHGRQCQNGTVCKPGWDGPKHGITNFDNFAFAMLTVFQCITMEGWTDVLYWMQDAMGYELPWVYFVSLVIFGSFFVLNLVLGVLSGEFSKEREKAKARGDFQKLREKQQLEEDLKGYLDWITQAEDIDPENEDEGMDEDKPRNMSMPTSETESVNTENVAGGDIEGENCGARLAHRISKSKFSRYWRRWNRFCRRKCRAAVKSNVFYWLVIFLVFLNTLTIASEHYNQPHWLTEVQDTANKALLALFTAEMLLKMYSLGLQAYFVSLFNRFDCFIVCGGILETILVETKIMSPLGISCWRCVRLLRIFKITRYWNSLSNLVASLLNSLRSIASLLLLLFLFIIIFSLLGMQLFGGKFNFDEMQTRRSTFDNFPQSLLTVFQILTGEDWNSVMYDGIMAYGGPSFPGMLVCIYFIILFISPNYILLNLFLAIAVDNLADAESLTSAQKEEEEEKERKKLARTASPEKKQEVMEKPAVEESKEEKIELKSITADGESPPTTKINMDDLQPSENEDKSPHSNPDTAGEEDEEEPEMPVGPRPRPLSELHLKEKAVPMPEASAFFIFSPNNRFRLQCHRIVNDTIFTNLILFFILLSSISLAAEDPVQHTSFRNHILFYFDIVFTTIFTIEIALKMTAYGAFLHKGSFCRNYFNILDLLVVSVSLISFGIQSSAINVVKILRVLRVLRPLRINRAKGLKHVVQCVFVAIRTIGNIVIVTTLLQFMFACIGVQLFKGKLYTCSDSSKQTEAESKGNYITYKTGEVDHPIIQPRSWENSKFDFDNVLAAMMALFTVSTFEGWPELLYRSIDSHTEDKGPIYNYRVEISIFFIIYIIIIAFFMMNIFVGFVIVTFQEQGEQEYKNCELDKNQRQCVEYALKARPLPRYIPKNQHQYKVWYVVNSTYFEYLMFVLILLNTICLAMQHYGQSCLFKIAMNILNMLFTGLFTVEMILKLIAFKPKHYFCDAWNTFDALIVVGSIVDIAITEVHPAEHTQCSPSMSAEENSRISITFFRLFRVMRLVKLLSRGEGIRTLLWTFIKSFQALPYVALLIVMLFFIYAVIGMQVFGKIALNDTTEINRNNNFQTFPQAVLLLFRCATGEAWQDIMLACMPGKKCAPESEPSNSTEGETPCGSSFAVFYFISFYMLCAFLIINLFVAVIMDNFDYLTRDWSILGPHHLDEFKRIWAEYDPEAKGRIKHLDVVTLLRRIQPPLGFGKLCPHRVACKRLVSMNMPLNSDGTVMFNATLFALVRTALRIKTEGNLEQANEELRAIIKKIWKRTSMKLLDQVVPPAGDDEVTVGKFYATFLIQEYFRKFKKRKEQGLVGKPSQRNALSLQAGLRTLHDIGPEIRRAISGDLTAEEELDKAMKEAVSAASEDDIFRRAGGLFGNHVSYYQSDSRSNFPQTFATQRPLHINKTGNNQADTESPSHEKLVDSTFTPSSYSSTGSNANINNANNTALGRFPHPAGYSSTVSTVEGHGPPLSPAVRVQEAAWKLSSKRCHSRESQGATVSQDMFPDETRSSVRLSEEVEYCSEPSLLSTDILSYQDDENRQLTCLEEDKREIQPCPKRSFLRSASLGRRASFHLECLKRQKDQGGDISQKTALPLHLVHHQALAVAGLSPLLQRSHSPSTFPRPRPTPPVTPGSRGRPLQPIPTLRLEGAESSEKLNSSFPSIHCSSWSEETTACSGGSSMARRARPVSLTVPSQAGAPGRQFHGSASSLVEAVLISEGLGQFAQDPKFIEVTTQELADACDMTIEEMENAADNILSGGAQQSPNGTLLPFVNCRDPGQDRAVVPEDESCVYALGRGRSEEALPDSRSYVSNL

SMILES	AC50 (Histamine H2 receptor) [µM]	AC50 (Cannabinoid receptor 1) [µM]	AC50 (Vasopressin V2 receptor) [µM]	AC50 [1] [µM]	AC50 (Vasopressin V1a receptor) [µM]	AC50 [2] [µM]	AC50 (D(1A) dopamine receptor) [µM]	AC50 [3] [µM]	AC50 [4] [µM]	AC50 [5] [µM]	AC50 [6] [µM]
C[C@H]1C[C@@H]2[C@H]([C@@H](O)C[C@@]3(C)[C@H]2CC[C@]3(O)C(=O)CO)[C@@]2(C)C=CC(=O)C=C12 [METHYLPREDNISOLONE]	> 30	> 10	> 10	> 10							
CC(C)(C(=O)c1cccnc1)c1cccnc1 [METYRAPONE]	> 10	> 10	> 10	> 10							
Cc1cccc(C)c1OCC(C)N (stereo not given) [MEXILETINE]	> 30		> 30								
NC(=O)c1ncn([C@@H]2O[C@H](CO)[C@@H](O)[C@H]2O)c1O [MIZORIBINE]	> 30		> 30		> 30	> 30					
COC(=O)C1=C(C)NC(C)=C(C(=O)OCC(C)C)C1c1ccccc1[N+](=O)[O-] (stereo not given) [NISOLDIPINE]	> 30		> 10	4.62							
OCCN1CCN(CCCN2c3ccccc3C=Cc3ccccc32)CC1 [OPIPRAMOL]	> 30		> 30		> 30	> 30	1.29	1.07	9.6	27.5	> 30
NC1=NC(=O)C(c2ccccc2)O1 (stereo not given) [PEMOLINE]	> 10		> 30	> 10							
CC[C@H](C)C(=O)O[C@H]1C[C@H](O)C=C2C=C[C@H](C)[C@H](CC[C@@H](O)C[C@@H](O)CC(=O)O)[C@H]21 [PRAVASTATIN]	> 10	> 10		> 10							
O=C(NC[C@H]1CN(c2ccc(N3CCOCC3=O)cc2)C(=O)O1)c1ccc(Cl)s1 [RIVAROXABAN]						> 30	> 30	> 3	> 30	> 30	> 30
Cc1cc2c(cc1CC(=O)c1sccc1S(=O)(=O)Nc1onc(C)c1Cl)OCO2 [SITAXENTAN]							> 30		> 30	> 30	> 30
CNC(=O)c1cc(Oc2ccc(NC(=O)Nc3ccc(Cl)c(C(F)(F)F)c3)cc2)ccn1 [SORAFENIB]	> 30		> 30	> 30	> 30	> 30					
CC(C(=O)O)c1ccc(C(=O)c2cccs2)cc1 (stereo not given) [SUPROFEN]	> 10	> 10	> 10	> 10	> 10	> 10					
Cc1ccc(C(=O)c2cc(O)c(O)c([N+](=O)[O-])c2)cc1 [TOLCAPONE]	> 10	> 10	> 10	> 10	> 10	> 10					
NC[C@H]1CC[C@H](C(=O)O)CC1 [TRANEXAMIC ACID]	> 30	> 10	> 10	> 10							
CCCS(=O)(=O)Nc1ccc(F)c(C(=O)c2c[nH]c3ncc(-c4ccc(Cl)cc4)cc23)c1F [VEMURAFENIB]	> 30		> 30	> 30	> 30	> 30					
OCc1cc([C@@H](O)CNCCCCCCOCCOCc2c(Cl)cccc2Cl)ccc1O [VILANTEROL]					> 30	> 30					
